Assay results: patent US7291612B2, “Immunomodulatory compounds” (Active Biotech A.B., priority 2002, dated 2007)

Biological target: T1, CD80-CD28 interaction (Homo sapiens, UniProt P33681)
T1 construct: mouse Fab fragment (fusion partner)
T1 sequence (P33681 35-242 limits assumed): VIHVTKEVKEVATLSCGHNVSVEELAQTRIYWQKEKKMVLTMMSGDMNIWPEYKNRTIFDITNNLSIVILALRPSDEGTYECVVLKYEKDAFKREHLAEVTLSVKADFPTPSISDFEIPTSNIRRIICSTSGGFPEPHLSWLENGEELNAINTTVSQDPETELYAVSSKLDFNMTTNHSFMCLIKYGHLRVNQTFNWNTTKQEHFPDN
Test: cell free Homogenous Time Resolved Fluorescence (HTRF) assay, inhibition of the CD80-CD28 interaction
Assay type: binding
Conditions: 4 hours at room temperature, read-out: Activity (EC50 in summary form)
Protocol: The examples described above were tested in a cell free Homogenous Time Resolved Fluorescence (HTRF) assay to determine their activity as inhibitors of the CD80-CD28 interaction.
In the assay, europium and allophycocyanin (APC) are associated with CD28 and CD80 indirectly (through antibody linkers) to form a complex, which brings the europium and APC into close proximity to generate a signal. The complex comprises the following six proteins: fluorescent label 1, linker antibody 1, CD28 fusion protein, CD80 fusion protein, linker antibody 2, and fluorescent label 2. The table below describes these reagents in greater detail.
On formation of the complex, europium and APC are brought into proximity and a signal is generated.
Non-specific interaction was measured by substituting a mouse Fab fragment (C215) for the CD80 mouse Fab fragment fusion protein (1.9 μg/ml). The assay was carried out in black 384 well plates in a final volume of 30 μl. Assay buffer: 50 mM Tris-HCl, 150 mM NaCl pH7.8, containing 0.1% BSA (w/v) added just prior to use.
Compounds were added to the above reagents in a concentration series ranging between 100 μM-1.7 nM. The reaction was incubated for 4 hours at room temperature. Dual measurements were made using a Wallac Victor 1420 Multilabel Counter. First measurement: excitation 340 nm, emission 665 nm, delay 50 μs, window time 200 μs. second measurement: excitation 340 nm, emission 615 nm, delay 50 μs, window time 200 μs. Counts were automatically corrected for fluorescence crossover, quenching and background.

Row | EC50 | Structure (SMILES)
1 | < 1000 nM | O=C(NCCN1CCN(Cc2ccccc2)CC1)c1ccc(-n2nc3c4cccc(F)c4[nH]cc-3c2=O)cc1 [Example 84]
2 | < 1000 nM | CN(C)CCCNC(=O)c1ccc(-n2nc3c4ccccc4[nH]cc-3c2=O)cc1 [Example 86]
3 | 1000 to 10000 nM | CCN(CC)CCCCNC(=O)c1ccc(-n2nc3c4ccccc4[nH]cc-3c2=O)cc1 [Example 88]
4 | 1000 to 10000 nM | CN(C)CCCN(C)C(=O)c1ccc(-n2nc3c4ccccc4[nH]cc-3c2=O)cc1 [Example 89]
5 | 1000 to 10000 nM | CN(C)CCCNC(=O)c1ccc(-n2nc3c4cccc(F)c4[nH]cc-3c2=O)cc1Cl [Example 90]
6 | 1000 to 10000 nM | O=C(NCCCN1CCCC1)c1ccc(-n2nc3c4ccccc4[nH]cc-3c2=O)cc1 [Example 91]
7 | 1000 to 10000 nM | O=C(NCCCN1CCN(Cc2c(F)cccc2Cl)CC1)c1ccc(-n2nc3c4ccccc4[nH]cc-3c2=O)cc1 [Example 92]
8 | 1000 to 10000 nM | CN1CCN(CCCNC(=O)c2ccc(-n3nc4c5ccccc5[nH]cc-4c3=O)cc2)CC1 [Example 93]
9 | 1000 to 10000 nM | O=C(NCCN1CCN(Cc2ccccc2)CC1)c1ccc(-n2nc3c4ccccc4[nH]cc-3c2=O)cc1 [Example 94]
10 | < 1000 nM | O=C(NCCCN1CCN(Cc2c(F)cccc2Cl)CC1)c1ccc(-n2nc3c4cccc(F)c4[nH]cc-3c2=O)cc1 [Example 95]
11 | < 1000 nM | CCN(CC)CCCC(C)NC(=O)c1ccc(-n2nc3c4cccc(F)c4[nH]cc-3c2=O)cc1 (centres unmarked) [Example 97]
12 | < 1000 nM | CN1CCN(CCCNC(=O)c2ccc(-n3nc4c5cccc(F)c5[nH]cc-4c3=O)cc2)CC1 [Example 98]
13 | 1000 to 10000 nM | O=C(NCCCCN1CCCC1)c1ccc(-n2nc3c4cccc(F)c4[nH]cc-3c2=O)c(Cl)c1 [Example 99]
14 | 1000 to 10000 nM | CN1CCN(CCCNC(=O)c2ccc(-n3nc4c5cccc(F)c5[nH]cc-4c3=O)cc2Cl)CC1 [Example 100]
15 | 1000 to 10000 nM | CCN(CC)CCCCNC(=O)c1ccc(-n2nc3c4cccc(F)c4[nH]cc-3c2=O)cc1Cl [Example 102]
16 | 1000 to 10000 nM | CN(C)CCCNC(=O)c1ccc(-n2nc3c4cccc(F)c4[nH]cc-3c2=O)c(Cl)c1 [Example 103]

Row | EC50 | Structure (SMILES)
17 | < 1000 nM | O=C(NCCCCN1CCCC1)c1ccc(-n2nc3c4ccccc4[nH]c(C4CC4)c-3c2=O)cc1 [Example 104]
18 | > 10000 nM | O=C(c1ccc(-n2nc3c4cccc(F)c4[nH]cc-3c2=O)cc1)N1CCN(Cc2ccc(Cl)cc2)CC1 [Example 105]
19 | < 1000 nM | CN(CCCNC(=O)c1ccc(-n2nc3c4cccc(F)c4[nH]cc-3c2=O)cc1)c1ccccc1 [Example 106]
20 | 1000 to 10000 nM | CC1CCCCN1CCCNC(=O)c1ccc(-n2nc3c4cccc(F)c4[nH]cc-3c2=O)cc1Cl (centres unmarked) [Example 108]
21 | < 1000 nM | CN(C)c1ccc(CNC(=O)c2ccc(-n3nc4c5cccc(F)c5[nH]cc-4c3=O)cc2)cc1 [Example 109]
22 | 1000 to 10000 nM | CN(C)CCCCNC(=O)c1ccc(-n2nc3c4cccc(F)c4[nH]cc-3c2=O)cc1Cl [Example 110]
23 | 1000 to 10000 nM | CN1CCN(C(=O)c2ccc(-n3nc4c5cccc(F)c5[nH]cc-4c3=O)cc2)CC1 [Example 111]
24 | < 1000 nM | CC1CCCCN1CCCNC(=O)c1ccc(-n2nc3c4cccc(F)c4[nH]cc-3c2=O)cc1 (centres unmarked) [Example 112]
25 | < 1000 nM | O=C(NCCN1CCOCC1)c1ccc(-n2nc3c4cccc(F)c4[nH]cc-3c2=O)cc1 [Example 113]
26 | < 1000 nM | CCN1CCCC1CNC(=O)c1ccc(-n2nc3c4cccc(F)c4[nH]cc-3c2=O)cc1 (centres unmarked) [Example 114]
27 | < 1000 nM | CN1C(C)(C)CC(NC(=O)c2ccc(-n3nc4c5cccc(F)c5[nH]cc-4c3=O)cc2)CC1(C)C [Example 115]
28 | < 1000 nM | O=C(NC1CCN(Cc2ccccc2)CC1)c1ccc(-n2nc3c4cccc(F)c4[nH]cc-3c2=O)cc1 [Example 116]
29 | < 1000 nM | CN(C)CC(C)(C)CNC(=O)c1ccc(-n2nc3c4cccc(F)c4[nH]cc-3c2=O)cc1 [Example 117]
30 | < 1000 nM | CC1(C)CC(NC(=O)c2ccc(-n3nc4c5cccc(F)c5[nH]cc-4c3=O)cc2)CC(C)(C)N1 [Example 118]
31 | 1000 to 10000 nM | O=C(NCCc1cccnc1)c1ccc(-n2nc3c4cccc(F)c4[nH]cc-3c2=O)cc1 [Example 119]
32 | < 1000 nM | CCSCCNC(=O)c1ccc(-n2nc3c4cccc(F)c4[nH]cc-3c2=O)cc1 [Example 120]
